Reference: paper PMC9530166, “Allosteric regulation of glycogen breakdown by the second messenger cyclic di-GMP” (Nature Communications, 2022)
Entries after “also recorded” stand apart in the source; their conditions may differ.

Tests used:
GlgX = GlgX (Streptomyces venezuelae, UniProt F2RAW5); test: Fluorescence polarization (FP) binding, wild-type GlgX; settings: FP, 1 nM fluoresceinated ligand, 25 °C
Description: (§1) Fig. 5 Structure of the S. venezuelae GlgX-c-di-GMP complex. a Ribbon diagram of the S. venezuelae GlgX-c-di-GMP complex with one GlgX subunit colored cyan and the other salmon. Shown as sticks are the c-di-GMP molecules bound at each end of the antiparallel dimer. […] There was clear density for each c-di-GMP molecule. b Close up of the GlgX-c-di-GMP binding interaction. Key residues mediating contacts to the c-di-GMP are shown as sticks and labeled. Hydrogen bonds from GlgX residues that specify binding to the guanine are indicated by yellow dashed lines. c Fluorescence polarization (FP) binding isotherm showing interaction of GlgX, GlgXE47A-R49A and GlgXR438A-R579A for F-c-di-GMP in red, green and blue respectively. Also shown is the binding isotherm for GlgX binding to F-c-di-AMP in black. […] The y-axis and x-axis are millipolarization (mP) units and GlgX concentration (μM), respectively. Shown are representative binding curves for each. The experiments were performed in technical triplicates and the error between measurements reported. Error bars represent SD of the measurements. Source data are provided in the Source data file.
Thus, we used this F-tagged c-di-GMP in fluorescence polarization (FP) studies to quantify the interaction between GlgX and c-di-GMP. […] To ensure that the presence of the fluorescent tag was not impacting the GlgX interaction with c-di-GMP we used microscale thermophoresis (MST) to quantify c-di-GMP binding to GlgX. […] But to further probe the structural model we created GlgXE47A-R49A and GlgXR438A-R579A mutants and performed FP studies with these proteins.
To measure c-di-GMP binding to GlgX and GlgX mutants, 2′-O-(6-[Fluoresceinyl]aminohexylcarbamoyl)-cyclic diguanosine monophosphate (2′-Fluo-AHC-c-di-GMP) (BioLog), was used as a fluoresceinated reporter ligand. This molecule is conjugated via a nine atom spacer to one of the c-di-GMP 2′ hydroxyl groups. […] 2′-O-(6-[Fluoresceinyl]aminohexylcarbamoyl)-cyclic diadenosine monophosphate (2′-Fluo-AHC-c-di-AMP) (BioLog) was also used in binding studies to assess specificity of GlgX for c-di-GMP. […]

His6-GlgX (Vnz29170) = test: nanoDSF label-free thermal shift assay, wild-type GlgX; format: binding, Streptomyces venezuelae; settings: 10 µM GlgX, 1 mM c-di-AMP
Description: (§2) Fig. 1 GlgX binds c-di-GMP. a Quantification of c-di-GMP in S. venezuelae cell extracts using LC-MS/MS. Cells were harvested during late vegetative growth (8–10 h), transition to sporulation (12–16 h), and sporulation (18–20 h). Data are presented as the mean of biological replicates ±SD (n = 3). […] Source data are provided in the Source data file. c [^32P]-c-di-GMP binds to GlgX in DRaCALA assay indicated by dark spots in the center of the nitrocellulose membrane. For competition, excess (100 µM) of unlabeled c-di-GMP, c-di-AMP, or GTP was added to the reaction containing [^32P]-c-di-GMP and GlgX.
To determine if the interaction between Vnz29170 (herein called GlgX) and c-di-GMP is direct, we purified an N-terminally His6-tagged GlgX protein and performed nano differential scanning fluorimetry (nanoDSF) thermal shift assays. […]
For label-free thermal shift assay experiments, 10 μM purified protein in 25 mM Tris pH 8, 150 mM NaCl, 2.5% (v/v) glycerol, and 5 mM MgCl2 was incubated without or with (1 mM) of nonlabeled c-di-GMP or c-di-AMP, respectively, at rt for 10 min. Reactions were subsequently analyzed in a Tycho NT.6 (NanoTemper Technologies) device with a 30 K/min thermal ramp and the internal fluorescence at 330 and 350 nm was recorded. […]

His6-GlgX = test: DRaCALA with [32P]-c-di-GMP, wild-type GlgX; format: binding, Streptomyces venezuelae; settings: excess (100 µM) unlabeled nucleotide
Description: as §2
To determine if the interaction between Vnz29170 (herein called GlgX) and c-di-GMP is direct, we purified an N-terminally His6-tagged GlgX protein and performed nano differential scanning fluorimetry (nanoDSF) thermal shift assays. […] In addition, we used differential radial capillary action of ligand assays (DRaCALA), which allows visualization of protein-bound radiolabeled ligand as a central spot after the application of the protein-ligand mix onto nitrocellulose. Using DRaCALA we confirmed that GlgX from S. venezuelae binds ^32P-labeled c-di-GMP.
For DRaCALA assays, purified His6-GlgX (15 μg) was mixed with 0.5 μl undiluted [^32P]-c-di-GMP (42 nM) (Hartmann Analytic GmbH, Braunschweig) in binding buffer (25 mM Tris pH 8; 150 mM NaCl; 2.5% (v/v) glycerol; 5 mM MgCl2) and the reaction was incubated at rt for 5 min. For competition assays, 100 μM nonlabeled nucleotides were added to the samples and incubated at rt for 5 min prior to the addition of [^32P]-c-di-GMP. Reactions (10 μl) were spotted on the same nitrocellulose membrane (Roth), air dried for 10 min and analyzed via phosphorimaging.

[1] = target: S. venezuelae glycogen debranching enzyme GlgX (Vnz29170) (S. venezuelae); test: crystal structure; GlgX with 3 mM c-di-GMP, 3.34 Å; 40% ethylene glycol, 0.1 M sodium acetate pH 4.6; two GlgX dimers in the asymmetric unit
GlgXR438A-R579A = test: Fluorescence polarization binding, GlgXR438A-R579A; set-up: species or system Streptomyces venezuelae
Description: as §1, with “Error bars represent SD of the measurements. Source data are provided in the Source data file.” left out
(§3) Thus, we used this F-tagged c-di-GMP in fluorescence polarization (FP) studies to quantify the interaction between GlgX and c-di-GMP. […] To ensure that the presence of the fluorescent tag was not impacting the GlgX interaction with c-di-GMP we used microscale thermophoresis (MST) to quantify c-di-GMP binding to GlgX. […]

GlgXE47A-R49A = test: Fluorescence polarization binding, GlgXE47A-R49A; set-up: species or system Streptomyces venezuelae
Description: as §1, with “Error bars represent SD of the measurements. Source data are provided in the Source data file.” left out
as §3

GlgX, sequence (F2RAW5 entry or part of it): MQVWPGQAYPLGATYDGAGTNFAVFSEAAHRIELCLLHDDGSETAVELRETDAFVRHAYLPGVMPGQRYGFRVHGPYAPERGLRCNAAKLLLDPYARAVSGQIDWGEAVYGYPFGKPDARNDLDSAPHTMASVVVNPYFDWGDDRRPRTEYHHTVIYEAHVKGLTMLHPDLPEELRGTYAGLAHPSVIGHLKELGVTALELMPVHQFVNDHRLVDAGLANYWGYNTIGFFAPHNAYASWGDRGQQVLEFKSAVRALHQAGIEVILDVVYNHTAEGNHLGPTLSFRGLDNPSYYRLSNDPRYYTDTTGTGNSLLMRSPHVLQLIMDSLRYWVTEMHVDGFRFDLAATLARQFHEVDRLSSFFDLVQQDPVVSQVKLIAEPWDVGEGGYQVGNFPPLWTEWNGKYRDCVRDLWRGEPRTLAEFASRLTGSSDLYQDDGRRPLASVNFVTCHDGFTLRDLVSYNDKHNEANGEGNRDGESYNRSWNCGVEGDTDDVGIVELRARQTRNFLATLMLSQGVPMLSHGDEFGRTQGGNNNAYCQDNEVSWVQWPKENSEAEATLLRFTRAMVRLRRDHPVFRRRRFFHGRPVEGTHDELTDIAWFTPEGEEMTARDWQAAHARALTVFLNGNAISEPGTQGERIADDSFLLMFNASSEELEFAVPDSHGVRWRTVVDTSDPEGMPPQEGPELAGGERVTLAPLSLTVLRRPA
GlgXE47A-R49A, sequence (as listed by the source, stated change not applied): as the sequence (F2RAW5 entry or part of it) above, with E47A, R49A counted along it
GlgXR438A-R579A, sequence (as listed by the source, stated change not applied): as the sequence (F2RAW5 entry or part of it) above, with R438A, R579A counted along it

## 2′-O-(6-[Fluoresceinyl]aminohexylcarbamoyl)-cyclic diadenosine monophosphate [F-c-di-AMP]
GlgX
  binding to WT GlgX in FP: did not bind; also recorded: essentially no binding

## Nc1ncnc2c1ncn2[C@@H]1O[C@@H]2COP(=O)(O)O[C@H]3[C@@H](O)[C@H](n4cnc5c(N)ncnc54)O[C@@H]3COP(=O)(O)O[C@H]2[C@H]1O [c-di-AMP]
His6-GlgX (Vnz29170)
  effect of ligand on melting point of His6-GlgX: no effect
His6-GlgX
  competition with 32P-c-di-GMP for binding to GlgX: not c-di-AMP or GTP competed

## Nc1nc2c(ncn2[C@@H]2O[C@H](COP(=O)(O)OP(=O)(O)OP(=O)(O)O)[C@@H](O)[C@H]2O)c(=O)[nH]1 [GTP]
His6-GlgX
  competition with 32P-c-di-GMP for binding to GlgX: not c-di-AMP or GTP competed

## S. venezuelae glycogen debranching enzyme GlgX (Vnz29170)
[1]
  stoichiometry N: 2

## 2′-O-(6-[Fluoresceinyl]aminohexylcarbamoyl)-cyclic diguanosine monophosphate [F-c-di-GMP]
GlgX; WT GlgX titrated, pH 7.5, read-out: Kd
  Kd: 8.2 ± 1 µM
GlgXR438A-R579A
  binding to mutant in FP: nonsaturable binding
GlgXE47A-R49A
  binding to mutant in FP: nonsaturable binding
